Consider two compounds from patent publication US5264430A, “2-spirocyclopropyl cephalosporin sulfone derivatives” (SynPhar Laboratories, Inc., priority 1991, dated 1993).

For experiment [1], the target named is T1, human leukocyte elastase (HLE) (Homo sapiens, UniProt P08246).
T1 construct: Purified elastase from human white blood cells; from tissue; host or cells: human white blood cells
T1 sequence (P08246 30-247 limits assumed): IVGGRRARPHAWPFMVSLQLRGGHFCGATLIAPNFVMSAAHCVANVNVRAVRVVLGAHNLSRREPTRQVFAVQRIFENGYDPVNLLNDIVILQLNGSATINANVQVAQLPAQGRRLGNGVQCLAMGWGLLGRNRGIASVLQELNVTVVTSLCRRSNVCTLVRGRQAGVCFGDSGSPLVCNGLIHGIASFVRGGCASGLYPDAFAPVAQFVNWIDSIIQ
Briefly: Enzyme assay for inhibition of HLE (Table I, activity against ILE). It is filed as biochemical. Conditions: HLE 10 nM, 10 minute preincubation, pH 7.6, 30° C. As to the method: Enzyme Assay for Inhibition of HLE
Enzyme: Purified elastase from human white blood cells.
MeO-succinyl-L-alanyl-L-alanyl-L-propyl-L-valine-p-nitroanilide (NA)
10 mM phosphate buffer (pH 7.6)
10% dimethylsulfoxide (DMSO)
The enzyme activity was determined by monitoring the increase in absorbance at […] caused by the hydrolysis of chromogenic substrates. Inhibition of enzyme by the compounds described were determined after a 10 minute preincubation with the enzyme in reaction mixture minus substrate. Reaction was initiated by the addition of substrate. The concentration of human leukocyte elastase used for assay was at 10 nM.
HLE, CTG, PPE, and CTD were tested at 30° C. and the others were […]

Experiment [2] concerns the target T2, cathepsin G (Homo sapiens, UniProt P08311).
T2 construct: Purified Cathepsin G from human white blood cells; from tissue; host or cells: human white blood cells
T2 sequence (P08311 21-244 limits assumed): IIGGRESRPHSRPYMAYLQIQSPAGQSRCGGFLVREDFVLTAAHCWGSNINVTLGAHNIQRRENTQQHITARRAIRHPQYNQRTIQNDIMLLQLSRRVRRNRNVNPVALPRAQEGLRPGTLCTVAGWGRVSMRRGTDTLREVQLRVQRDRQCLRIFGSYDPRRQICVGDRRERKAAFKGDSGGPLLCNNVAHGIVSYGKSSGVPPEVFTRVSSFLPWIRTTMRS
Briefly: Selectivity against various proteases: cathepsin G (CTG). It is filed as biochemical. Conditions: cathepsin G 50 nM, human white blood cells, pH 7.5, 30° C., 10 minute preincubation. On the procedure: Reaction mixture: […] 500 mM NaCl […] 2.0 mM Substrate Except for Cathepsin D, the enzyme activities were determined by monitoring the increase in absorbance at 410 nm caused by the hydrolysis of chromogenic substrates. The activity of Cathepsin D was determined by monitoring the absorbance of 5% trichloroacetic acid-soluble material at 280 nm. Inhibition of enzymes by the compounds described were determined after a 10 minute preincubation with enzymes in reaction mixtures minus substrate. Reactions were initiated by the addition of substrates. The concentration used for assays were porcine pancreatic elastase at 240 nM and human Cathepsin G at 50 nM. Cathepsin D was used at the concentration that produced approximately 0.15 O.D. increase per 20 min at 280 nm under the standard conditions. All other proteases were assayed at the concentrations that produced approximately 0.1 O.D. change per minute at 410 nm under the standard conditions.

Experiment [3] has as its target T3, trypsin (Bos taurus, UniProt P00760).
T3 construct: Purified trypsin from bovine pancreas; from tissue; host or cells: bovine pancreas
T3 sequence (P00760 24-246): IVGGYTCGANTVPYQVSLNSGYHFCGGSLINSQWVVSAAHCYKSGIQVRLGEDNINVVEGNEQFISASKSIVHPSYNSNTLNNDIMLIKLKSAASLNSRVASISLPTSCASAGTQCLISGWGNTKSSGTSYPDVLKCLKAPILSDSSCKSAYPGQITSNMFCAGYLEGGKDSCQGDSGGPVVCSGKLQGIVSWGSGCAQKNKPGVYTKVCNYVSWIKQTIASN
The experiment in a line: Selectivity against various proteases: trypsin (TRY). It is filed as biochemical, bovine.
Method: Enzyme: Purified trypsin from bovine pancreas
Substrate: Bz-L-arginine-p-NA
50 mM Tricine[N-Tris(hydroxymethyl)methylglycine]-NaOH buffer (pH 8.8) 150 mM NaCl

The target of experiment [4] is T4, thrombin (Homo sapiens, UniProt P00734).
T4 construct: Purified thrombin from human plasma; from tissue; host or cells: human plasma
The experiment in a line: Selectivity against various proteases: thrombin (THR). Conditions: human plasma, pH 8.6, 22° C., 10 minute preincubation. It is filed as biochemical. On the procedure:
TRY = trypsin, THR = thrombin, PLM = plasmin, CTC = cathepsin C, APM =
Enzyme: Purified thrombin from human plasma
Substrate: Tosyl-glycyl-L-prolyl-L-arginine-p-NA acetate
50 mM Tricine-NaOH buffer (PH 8.6)
(§1) Except for Cathepsin D, the enzyme activities were determined by monitoring the increase in absorbance at 410 nm caused by the hydrolysis of chromogenic substrates. The activity of Cathepsin D was determined by monitoring the absorbance of 5% trichloroacetic acid-soluble material at 280 nm.
Inhibition of enzymes by the compounds described were determined after a 10 minute preincubation with enzymes in reaction mixtures minus substrate. Reactions were initiated by the addition of substrates. The concentration used for assays were porcine pancreatic elastase at 240 nM and human Cathepsin G at 50 nM. Cathepsin D was used at the concentration that produced approximately 0.15 O.D. increase per 20 min at 280 nm under the standard conditions. All other proteases were assayed at the concentrations that produced approximately 0.1 O.D. change per minute at 410 nm under the standard conditions.

Experiment [5] addresses T5, cathepsin C (Bos taurus, UniProt Q3ZCJ8).
T5 construct: Purified cathepsin C from bovine spleen; from tissue; host or cells: bovine spleen
Briefly: Selectivity against various proteases: cathepsin C (CTC). It is filed as biochemical, bovine. Conditions: cathepsin C, bovine spleen, pH 5.4, 22° C., 10 minute preincubation; read-out: CTC IC50 (converted).
Method: Enzyme: Purified cathepsin C from bovine spleen
Substrate: Glycyl-L-phenylalanine-pNA
50 mM Citrate buffer (pH 5.4)
Inhibition of enzymes by the compounds described were determined after a 10 minute preincubation with enzymes in reaction mixtures minus substrate. Reactions were initiated by the addition of substrates. […] All other proteases were assayed at the concentrations that produced approximately 0.1 O.D. change per minute at 410 nm under the standard conditions.

Experiment [6] has as its target T6, aminopeptidase M (Sus scrofa, UniProt P15145).
T6 construct: Purified aminopeptidase M from porcine kidney; from tissue; host or cells: porcine kidney
T6 sequence (P15145 1-963): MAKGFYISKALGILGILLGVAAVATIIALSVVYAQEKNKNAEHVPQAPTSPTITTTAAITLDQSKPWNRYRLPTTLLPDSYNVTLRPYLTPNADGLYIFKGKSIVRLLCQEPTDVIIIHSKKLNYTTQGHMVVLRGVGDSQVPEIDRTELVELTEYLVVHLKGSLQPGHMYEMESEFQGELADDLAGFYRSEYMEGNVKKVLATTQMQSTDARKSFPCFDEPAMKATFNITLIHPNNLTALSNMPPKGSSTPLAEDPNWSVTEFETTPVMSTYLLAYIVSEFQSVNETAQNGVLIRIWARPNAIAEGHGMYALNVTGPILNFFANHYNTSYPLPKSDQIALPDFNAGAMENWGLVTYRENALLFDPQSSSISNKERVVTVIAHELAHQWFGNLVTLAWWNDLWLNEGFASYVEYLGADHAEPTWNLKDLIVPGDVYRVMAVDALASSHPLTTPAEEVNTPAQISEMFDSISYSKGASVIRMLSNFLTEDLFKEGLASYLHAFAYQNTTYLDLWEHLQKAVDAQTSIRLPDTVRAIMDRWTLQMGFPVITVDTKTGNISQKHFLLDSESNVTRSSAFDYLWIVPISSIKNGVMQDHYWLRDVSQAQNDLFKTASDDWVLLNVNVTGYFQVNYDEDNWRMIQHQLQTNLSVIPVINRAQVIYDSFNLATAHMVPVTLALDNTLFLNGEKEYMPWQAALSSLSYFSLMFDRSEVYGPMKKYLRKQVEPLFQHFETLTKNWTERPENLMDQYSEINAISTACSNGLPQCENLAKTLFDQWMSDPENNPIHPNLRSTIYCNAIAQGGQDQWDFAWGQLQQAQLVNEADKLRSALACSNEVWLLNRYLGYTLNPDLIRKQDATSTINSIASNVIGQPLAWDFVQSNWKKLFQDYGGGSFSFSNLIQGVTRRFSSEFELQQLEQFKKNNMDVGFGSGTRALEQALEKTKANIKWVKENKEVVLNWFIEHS
Briefly: Selectivity against various proteases: aminopeptidase M (APM). It is filed as biochemical, porcine.
Method: Enzyme: Purified aminopeptidase M from porcine kidney
50 mM Tricine buffer (pH 7.5)

The target of experiment [7] is T7, cathepsin D (Bos taurus, UniProt P80209).
T7 construct: Purified cathepsin D from bovine spleen; from tissue; host or cells: bovine spleen
T7 sequence (P80209 45-390): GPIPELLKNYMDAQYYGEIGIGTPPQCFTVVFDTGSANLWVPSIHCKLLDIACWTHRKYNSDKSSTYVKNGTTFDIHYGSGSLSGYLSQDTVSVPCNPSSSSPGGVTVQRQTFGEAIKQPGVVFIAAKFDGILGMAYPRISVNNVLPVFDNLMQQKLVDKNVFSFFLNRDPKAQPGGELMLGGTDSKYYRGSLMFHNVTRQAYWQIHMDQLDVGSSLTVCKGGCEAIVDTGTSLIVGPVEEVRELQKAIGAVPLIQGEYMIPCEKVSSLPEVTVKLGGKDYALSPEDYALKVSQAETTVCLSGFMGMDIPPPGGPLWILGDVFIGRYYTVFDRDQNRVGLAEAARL
Briefly: Selectivity against various proteases: cathepsin D (CTD). To be noted: cathepsin D, bovine spleen, pH 3.2, 30° C., 10 minute preincubation; read-out: CTD IC50 (converted). It is filed as biochemical, bovine.
Method: Enzyme: Purified cathepsin D from bovine spleen
Substrate: Hemoglobin (bovine)
250 mM Glycine buffer (pH 3.2)

Experiment [8] addresses T8, porcine pancreatic elastase (Sus scrofa, UniProt P00772).
T8 construct: Purified elastase from porcine pancreas; from tissue; host or cells: porcine pancreas
The experiment in a line: Selectivity against various proteases: porcine pancreatic elastase (PPE). Conditions: porcine pancreatic elastase 240 nM, pH 8.9, 30° C., 10 minute preincubation; read-out: PPE IC50 (converted). It is filed as biochemical. On the procedure:
Porcine Pancreatic Elastase (PPE)
Enzyme: Purified elastase from porcine pancreas
Substrate: MeO-succinyl-L-alanyl-L-alanyl-L-prolyl-L-valine-pNA
50 mM Tris[Tris(hydroxymethyl) aminomethane]. HCl buffer (pH 8.9)
as §1
Inhibition of enzymes by the compounds described were determined after a 10 minute preincubation with enzymes in reaction mixtures minus substrate. Reactions were initiated by the addition of substrates. […] Cathepsin D was used at the concentration that produced approximately 0.15 O.D. increase per 20 min at 280 nm under the standard conditions. All other proteases were assayed at the concentrations that produced approximately 0.1 O.D. change per minute at 410 nm under the standard conditions.

T5 sequence (Q3ZCJ8 231-394 limits assumed): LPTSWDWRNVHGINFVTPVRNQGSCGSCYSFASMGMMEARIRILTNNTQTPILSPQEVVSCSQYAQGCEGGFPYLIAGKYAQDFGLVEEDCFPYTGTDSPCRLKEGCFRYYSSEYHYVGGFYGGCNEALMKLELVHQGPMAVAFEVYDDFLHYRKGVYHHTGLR
T5 sequence (Q3ZCJ8 395-463 limits assumed): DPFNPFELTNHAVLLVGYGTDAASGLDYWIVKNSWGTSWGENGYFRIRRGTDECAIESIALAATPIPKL
T5 sequence (Q3ZCJ8 25-134 limits assumed): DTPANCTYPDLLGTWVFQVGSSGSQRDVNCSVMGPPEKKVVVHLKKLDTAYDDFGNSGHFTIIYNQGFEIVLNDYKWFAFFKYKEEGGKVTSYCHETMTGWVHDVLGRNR
T8 sequence (P00772 27-266): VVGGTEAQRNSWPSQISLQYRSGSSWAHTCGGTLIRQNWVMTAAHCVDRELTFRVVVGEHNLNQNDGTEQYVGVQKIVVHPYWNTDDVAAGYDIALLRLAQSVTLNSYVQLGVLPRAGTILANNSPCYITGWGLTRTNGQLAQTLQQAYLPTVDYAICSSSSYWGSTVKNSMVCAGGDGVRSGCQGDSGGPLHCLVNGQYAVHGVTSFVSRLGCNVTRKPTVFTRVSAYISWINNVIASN

For the compound `CC1=C(C(=O)OC(c2ccccc2)c2ccccc2)N2C(=O)[C@H](Br)[C@H]2S(=O)(=O)C12CC2(c1ccccc1)c1ccccc1` (single isomer, unassigned) [Example 2, benzhydryl 7α-bromo-2-spiro(2', 2'-diphenyl) cyclopropyl-3-methyl-3-cephem-4-carboxylate-1,1-dioxide], the IC50 is 0.00336 µM in experiment [1] and 16.2 µM in experiment [2].
As for `CO[C@H]1C(=O)N2C(C(=O)N3CCCC3)=C(C)C3(CC3(c3ccccc3)c3ccccc3)S(=O)(=O)[C@H]12` (stereo partly drawn) [Example 10, 7-α-Methoxy-2-spiro (2',2'-diphenyl)cyclopropyl-3-methyl-3-cephem-4-pyrrolidine carboxamide-1,1-dioxide], the IC50 in experiment [3] was 40 µM; in experiment [4], 40 µM; in experiment [5] it was 9.99 µM; in experiment [6], 40 µM; in experiment [2], 30.9 µM; in experiment [7], 9.99 µM. Moreover, the IC50 in experiment [8] is 0.0954 µM.

Broadly, the IC50 is the concentration that gives 50% inhibition.
